Assay results reported in patent publication US12415770B2, “Modulators of liver receptor homologue 1 (LRH-1) and uses” (Emory University, priority 2017, dated 2025).
Entries after “also recorded” stand apart in the source; their conditions may differ.

What was measured:
LRH-1 = molecular target: T1, LRH-1 (Homo sapiens, UniProt O00482); experiment: Luciferase reporter assay (SHP-luc) in HeLa cells transfected with full-length LRH-1; assay type: cell-based; conditions: for Relative Efficacy: fold increase over baseline (DMSO-treated cells) relative to the fold increase induced by RJW100
T1 construct: The transfected plasmids included full-length LRH-1 in a pCI vector; expressed in transfected cells; host or cells: HeLa
Method: EC50 and Relative Activity values were calculated from luciferase reporter assays.

LRH-1 LBD = molecular target: T2, LRH-1 LBD (Homo sapiens, UniProt O00482); experiment: Thermofluor (DSF) assay, purified LRH-1 LBD-His protein; assay type: binding; conditions: for ΔTm at 50 µM: 50 μM compound, relative to DLPC-bound LRH-1, read-out: ΔTm (mean +/− SEM) (° C.)
T2 construct: LRH-1 LBD (residues 299-541) in the pMSC7 vector was expressed in BL21 (DE3) pLysS E. coli; made in house; host or cells: E. coli BL21 (DE3) pLysS
Method in brief: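 Purified His-tagged LRH-1 LBD (0.2 mg/ml) was incubated overnight at 4° C with 50 μM compound (1% DMSO final), then SYPRO orange was added. Samples were heated at 0.5° C per minute. Tm came from Boltzmann fits after subtracting no-protein baseline fluorescence.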

H390A-LRH-1 = H390A-LRH-1 (Homo sapiens, UniProt O00482, H390A); experiment: Luciferase reporter assay (SHP-luc), H390A mutant LRH-1; conditions: His-390 mutated to alanine
[1] = cited from earlier work
[2] = diabetic mice fed DLPC, mouse models of insulin resistance
[3] = HeLa cells, SHP-luc reporter, 24 hours, 0.03-30 μM

T1 sequence (O00482 whole entry): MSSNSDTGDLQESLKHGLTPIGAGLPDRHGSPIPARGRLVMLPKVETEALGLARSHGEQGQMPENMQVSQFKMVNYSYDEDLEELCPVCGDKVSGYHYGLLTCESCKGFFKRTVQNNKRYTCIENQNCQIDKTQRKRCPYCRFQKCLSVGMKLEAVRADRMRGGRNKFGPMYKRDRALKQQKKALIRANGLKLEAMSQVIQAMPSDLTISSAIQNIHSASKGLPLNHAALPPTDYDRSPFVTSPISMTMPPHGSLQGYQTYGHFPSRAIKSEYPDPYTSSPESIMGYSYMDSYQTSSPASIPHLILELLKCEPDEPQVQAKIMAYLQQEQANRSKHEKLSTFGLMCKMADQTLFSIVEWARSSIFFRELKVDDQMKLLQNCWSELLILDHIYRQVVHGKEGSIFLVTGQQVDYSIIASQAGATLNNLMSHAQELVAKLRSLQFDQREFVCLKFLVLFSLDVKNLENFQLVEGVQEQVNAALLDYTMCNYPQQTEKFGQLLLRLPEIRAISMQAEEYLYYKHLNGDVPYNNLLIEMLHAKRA
T2 sequence (O00482 299-541): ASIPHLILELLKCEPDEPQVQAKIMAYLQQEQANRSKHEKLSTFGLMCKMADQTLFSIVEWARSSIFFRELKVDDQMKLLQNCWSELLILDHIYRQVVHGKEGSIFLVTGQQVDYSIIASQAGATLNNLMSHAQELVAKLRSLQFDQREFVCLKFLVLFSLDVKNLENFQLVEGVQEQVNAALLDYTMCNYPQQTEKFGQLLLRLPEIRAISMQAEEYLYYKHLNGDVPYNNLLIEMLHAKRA
Chain of H390A-LRH-1 (O00482 whole entry H390A): as the sequence (O00482 whole entry) above, with H390A counted along it

Compound | EC50 (μM) (LRH-1; [3]) | Relative Efficacy (LRH-1) | ΔTm at 50 µM (LRH-1 LBD) | EC50 (LRH-1; [3]) | further results
CCC/C=C(\CCC)C1=C(c2ccccc2)[C@]2(Nc3ccccc3)CCC[C@@H]2C1 [GSK8470, reference compound] | – | – | – | – | increase of LRH-1 activity compared with DMSO (LRH-1; WT LRH-1, highest dose): ~2.5 fold; EC50 (LRH-1; WT LRH-1, text): ~4 µM; stabilization of LRH-1-ligand complex / Tm shift (LRH-1 LBD; WT LRH-1): did not affect the melting profile; activation of H390A-LRH-1 (H390A-LRH-1): completely unable to activate
CCCCCCCCCCCC(=O)OC[C@H](COP(=O)([O-])OCC[N+](C)(C)C)OC(=O)CCCCCCCCCCC [DLPC, dilauroyl-phosphatidylcholine] | – | – | – | – | bile acid levels ([1]; DLPC treatment, mouse): increases bile acid levels; hepatic triglycerides and serum glucose ([1]; DLPC treatment, mouse): lowers hepatic triglycerides and serum glucose; circulating insulin, triglycerides, and free fatty acids ([1]; diabetic mice fed DLPC): reduced quantities; glucose tolerance / glucose homeostasis [1, 2]: improves glucose homeostasis; also recorded: improved glucose tolerance; hepatic fat accumulation / hepatic steatosis [1, 2]: decreases hepatic steatosis; also recorded: reduced hepatic fat accumulation
C=C(c1ccccc1)C12CCC(O)C1CC(CCCCCO)=C2c1ccccc1 (stereo not drawn) [Compound 6e, Exo-5-(5-hydroxypentyl)-4-phenyl-3a-(1-phenylvinyl)-1,2,3,3a,6,6a-hexahydropentalen-1-ol] | cnc | 1.57 | 2.4 °C | – | –
C=C(c1ccccc1)[C@@]12CC[C@H](N=[N+]=[N-])C1CC(CCCCCC)=C2c1ccccc1 (stereo partly drawn) [Compound 31-endo, (Endo or Exo)-5-hexyl-4-phenyl-3a-(1-phenylvinyl)-1,2,3,3a,6,6a-hexahydropentalen-1-azide] | – | 0.70 | < 1 °C | 5 µM | –
C=C(c1ccccc1)C12CCC(O)C1CC(CCCCCCCCCCCOP(=O)([O-])OCC[N+](C)(C)C)=C2c1ccccc1 (stereo not drawn) [Compound 12g, 11-(6-exo-hydroxy-3-phenyl-3a-(1-phenylvinyl)-1,3a,4,5,6,6a-hexahydropentalen-2-yl)undecyl (2-(trimethylammonio)ethyl) phosphate] | – | 0.93 | -1.7 °C | 5.1 µM | –
C=C(c1ccccc1)[C@@]12CC[C@@H](O)C1CC(CCCCCC)=C2c1cc(N)cc(F)c1 (mixture of isomers) [Compound 18g, (Exo)-4-(3-amino-5-fluorophenyl)-5-hexyl-3a-(1-phenylvinyl)-1,2,3,3a,6,6a-hexahydropentalen-1-ol] | cnc | 0.99 | 1.5 °C | – | –
